In ChEMBL document CHEMBL3393036, “Tetra-substituted pyridinylimidazoles as dual inhibitors of p38α mitogen-activated protein kinase and c-Jun N-terminal kinase 3 for potential treatment of neurodegenerative diseases” (J Med Chem, 2015):

Experiments:
[1] = molecular target: T1, Activin receptor type-1 (Homo sapiens) (UniProt Q04771); assay: Inhibition of ACVR1 (ALK2) (unknown origin) at 5.5 uM by Caliper Mobility Shift Assay
T1 sequence (whole entry): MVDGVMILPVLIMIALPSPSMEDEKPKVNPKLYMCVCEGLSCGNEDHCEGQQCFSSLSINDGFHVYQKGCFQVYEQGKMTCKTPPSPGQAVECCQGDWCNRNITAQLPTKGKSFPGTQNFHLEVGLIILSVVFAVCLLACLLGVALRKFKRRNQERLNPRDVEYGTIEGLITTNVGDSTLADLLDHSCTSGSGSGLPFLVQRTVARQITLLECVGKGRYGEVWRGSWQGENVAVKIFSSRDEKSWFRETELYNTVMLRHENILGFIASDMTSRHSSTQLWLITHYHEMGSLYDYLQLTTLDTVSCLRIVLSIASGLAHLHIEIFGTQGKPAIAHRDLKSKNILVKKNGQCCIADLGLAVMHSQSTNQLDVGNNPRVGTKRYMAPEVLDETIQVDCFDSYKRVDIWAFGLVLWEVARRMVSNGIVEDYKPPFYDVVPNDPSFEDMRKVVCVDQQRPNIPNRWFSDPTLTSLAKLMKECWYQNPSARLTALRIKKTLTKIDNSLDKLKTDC

[2] = molecular target: T2, Aurora kinase A (Homo sapiens) (UniProt O14965); assay: Inhibition of AURKA (unknown origin) at 5.5 uM by Caliper Mobility Shift Assay
T2 sequence (whole entry): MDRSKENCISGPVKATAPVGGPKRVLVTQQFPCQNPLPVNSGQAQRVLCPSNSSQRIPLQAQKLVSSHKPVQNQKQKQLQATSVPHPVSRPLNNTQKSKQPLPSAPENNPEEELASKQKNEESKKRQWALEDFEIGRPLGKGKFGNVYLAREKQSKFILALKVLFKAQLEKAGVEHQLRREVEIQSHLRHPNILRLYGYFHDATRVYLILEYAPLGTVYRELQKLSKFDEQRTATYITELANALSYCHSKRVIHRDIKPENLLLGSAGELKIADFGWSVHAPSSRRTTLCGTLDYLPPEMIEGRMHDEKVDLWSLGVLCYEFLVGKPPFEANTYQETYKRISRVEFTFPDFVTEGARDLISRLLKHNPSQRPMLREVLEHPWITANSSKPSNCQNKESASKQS

Homo sapiens [3] = organism: Homo sapiens; assay: Inhibition of CDK1B (unknown origin) at 5.5 uM by Caliper Mobility Shift Assay
[4] = molecular target: Casein kinase I isoform gamma-3 (Homo sapiens) (UniProt Q9Y6M4); assay: Inhibition of CSNK1G3 (CK1) (unknown origin) at 5.5 uM by Caliper Mobility Shift Assay
Casein kinase I isoform gamma-3 (Homo sapiens), sequence (Q9Y6M4 whole entry, looked up, canonical isoform): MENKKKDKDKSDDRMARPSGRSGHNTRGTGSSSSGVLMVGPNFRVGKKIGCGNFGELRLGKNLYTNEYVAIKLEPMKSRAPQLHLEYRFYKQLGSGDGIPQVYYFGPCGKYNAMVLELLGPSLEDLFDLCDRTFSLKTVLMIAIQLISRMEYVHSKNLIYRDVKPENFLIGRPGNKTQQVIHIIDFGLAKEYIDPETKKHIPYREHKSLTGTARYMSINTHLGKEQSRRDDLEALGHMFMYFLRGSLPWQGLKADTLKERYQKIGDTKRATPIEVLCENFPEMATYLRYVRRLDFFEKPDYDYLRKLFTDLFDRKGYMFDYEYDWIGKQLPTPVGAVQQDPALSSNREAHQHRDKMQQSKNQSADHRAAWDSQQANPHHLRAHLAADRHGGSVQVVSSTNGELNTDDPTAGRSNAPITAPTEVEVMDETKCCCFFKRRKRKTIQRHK

[5] = molecular target: Proto-oncogene tyrosine-protein kinase Src (Homo sapiens) (UniProt P12931); assay: Inhibition of cSRC (unknown origin) at 5.5 uM by Caliper Mobility Shift Assay
Proto-oncogene tyrosine-protein kinase Src (Homo sapiens), sequence (P12931 2-536 limits assumed): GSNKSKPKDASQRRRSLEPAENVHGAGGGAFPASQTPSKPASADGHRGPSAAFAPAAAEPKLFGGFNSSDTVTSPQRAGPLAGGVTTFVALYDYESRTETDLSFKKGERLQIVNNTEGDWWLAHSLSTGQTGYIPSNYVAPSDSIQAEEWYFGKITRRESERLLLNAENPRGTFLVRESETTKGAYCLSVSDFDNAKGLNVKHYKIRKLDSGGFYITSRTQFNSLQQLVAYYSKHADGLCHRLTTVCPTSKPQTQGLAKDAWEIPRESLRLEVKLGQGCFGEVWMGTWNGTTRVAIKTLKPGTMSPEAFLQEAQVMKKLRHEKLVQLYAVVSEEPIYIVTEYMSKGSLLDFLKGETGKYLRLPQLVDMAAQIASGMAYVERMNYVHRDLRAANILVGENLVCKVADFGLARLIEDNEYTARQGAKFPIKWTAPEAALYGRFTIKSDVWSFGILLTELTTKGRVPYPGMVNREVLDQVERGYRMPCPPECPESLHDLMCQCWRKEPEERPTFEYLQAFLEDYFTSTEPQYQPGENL

[6] = molecular target: Epidermal growth factor receptor (Homo sapiens) (UniProt P00533); assay: Inhibition of EGFR (HER1) (unknown origin) at 5.5 uM by Caliper Mobility Shift Assay
Epidermal growth factor receptor (Homo sapiens), sequence (P00533 whole entry): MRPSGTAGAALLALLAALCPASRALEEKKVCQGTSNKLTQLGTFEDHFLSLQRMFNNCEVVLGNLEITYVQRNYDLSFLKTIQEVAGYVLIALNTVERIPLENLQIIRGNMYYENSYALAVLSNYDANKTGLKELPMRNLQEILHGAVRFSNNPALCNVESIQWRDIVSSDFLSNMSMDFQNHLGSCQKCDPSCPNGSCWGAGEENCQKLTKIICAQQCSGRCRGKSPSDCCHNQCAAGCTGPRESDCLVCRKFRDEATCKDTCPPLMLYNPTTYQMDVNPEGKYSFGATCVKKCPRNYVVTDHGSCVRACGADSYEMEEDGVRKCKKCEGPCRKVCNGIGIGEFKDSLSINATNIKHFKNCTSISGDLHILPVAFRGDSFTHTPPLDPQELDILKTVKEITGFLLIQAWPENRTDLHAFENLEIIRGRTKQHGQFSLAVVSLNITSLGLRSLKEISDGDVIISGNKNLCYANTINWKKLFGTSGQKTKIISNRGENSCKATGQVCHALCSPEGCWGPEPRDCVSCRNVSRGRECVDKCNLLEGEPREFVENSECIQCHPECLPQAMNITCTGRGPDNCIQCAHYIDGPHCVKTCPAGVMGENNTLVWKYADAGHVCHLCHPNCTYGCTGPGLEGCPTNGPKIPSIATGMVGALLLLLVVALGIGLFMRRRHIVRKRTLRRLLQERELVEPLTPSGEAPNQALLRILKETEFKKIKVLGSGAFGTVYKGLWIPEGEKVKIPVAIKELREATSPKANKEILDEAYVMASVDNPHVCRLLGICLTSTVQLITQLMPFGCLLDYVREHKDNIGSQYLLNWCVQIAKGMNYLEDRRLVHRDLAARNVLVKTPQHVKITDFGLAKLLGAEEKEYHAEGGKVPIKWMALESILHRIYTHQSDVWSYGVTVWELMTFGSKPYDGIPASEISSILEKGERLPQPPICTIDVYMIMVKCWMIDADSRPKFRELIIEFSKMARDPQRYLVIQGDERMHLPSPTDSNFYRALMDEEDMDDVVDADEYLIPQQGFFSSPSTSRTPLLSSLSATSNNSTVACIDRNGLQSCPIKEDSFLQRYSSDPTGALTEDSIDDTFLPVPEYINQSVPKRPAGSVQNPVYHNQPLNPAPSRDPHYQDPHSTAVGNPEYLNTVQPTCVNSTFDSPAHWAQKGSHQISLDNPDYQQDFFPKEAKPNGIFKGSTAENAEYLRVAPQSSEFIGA

[7] = tested on: Fibroblast growth factor receptor 3 (Homo sapiens), P22607 [K650E]; assay: Inhibition of FGFR3 K650E (unknown origin) at 5.5 uM by Caliper Mobility Shift Assay
Fibroblast growth factor receptor 3 (Homo sapiens), P22607 [K650E], sequence (P22607 whole entry K650E): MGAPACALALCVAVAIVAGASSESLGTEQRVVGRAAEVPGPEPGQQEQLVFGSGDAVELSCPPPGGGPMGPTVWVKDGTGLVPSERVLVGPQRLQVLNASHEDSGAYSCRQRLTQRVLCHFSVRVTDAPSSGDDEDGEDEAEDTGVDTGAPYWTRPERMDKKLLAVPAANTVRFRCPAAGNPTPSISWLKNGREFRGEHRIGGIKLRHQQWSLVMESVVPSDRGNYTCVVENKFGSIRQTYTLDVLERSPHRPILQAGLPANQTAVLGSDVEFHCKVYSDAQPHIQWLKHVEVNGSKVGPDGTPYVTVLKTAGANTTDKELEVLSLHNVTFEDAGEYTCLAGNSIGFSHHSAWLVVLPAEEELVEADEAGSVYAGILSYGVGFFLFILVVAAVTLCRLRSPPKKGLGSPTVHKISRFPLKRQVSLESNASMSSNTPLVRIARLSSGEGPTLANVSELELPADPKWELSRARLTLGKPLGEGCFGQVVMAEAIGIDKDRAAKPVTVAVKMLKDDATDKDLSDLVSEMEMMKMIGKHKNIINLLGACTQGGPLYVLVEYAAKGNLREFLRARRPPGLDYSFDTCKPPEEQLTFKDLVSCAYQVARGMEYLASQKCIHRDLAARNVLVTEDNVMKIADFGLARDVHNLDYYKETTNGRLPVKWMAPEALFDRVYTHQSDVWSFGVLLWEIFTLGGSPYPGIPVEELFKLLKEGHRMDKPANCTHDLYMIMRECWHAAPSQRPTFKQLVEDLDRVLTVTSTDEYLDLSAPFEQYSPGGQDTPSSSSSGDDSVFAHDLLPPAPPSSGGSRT

[8] = molecular target: Fibroblast growth factor receptor 4 (Homo sapiens) (UniProt P22455); assay: Inhibition of FGFR4 (unknown origin) at 5.5 uM by Caliper Mobility Shift Assay
[9] = molecular target: Mitogen-activated protein kinase 8 (Homo sapiens) (UniProt P45983); assay: Inhibition of JNK1 (unknown origin) at 5.5 uM by Caliper Mobility Shift Assay
[10] = molecular target: Tyrosine-protein kinase Lck (Homo sapiens) (UniProt P06239); assay: Inhibition of LCK (unknown origin) at 5.5 uM by Caliper Mobility Shift Assay
[11] = molecular target: Mitogen-activated protein kinase kinase kinase 8 (Homo sapiens) (UniProt P41279); assay: Inhibition of MAP3K8 (unknown origin) at 5.5 uM by Caliper Mobility Shift Assay
Mitogen-activated protein kinase kinase kinase 8 (Homo sapiens), sequence (P41279 whole entry): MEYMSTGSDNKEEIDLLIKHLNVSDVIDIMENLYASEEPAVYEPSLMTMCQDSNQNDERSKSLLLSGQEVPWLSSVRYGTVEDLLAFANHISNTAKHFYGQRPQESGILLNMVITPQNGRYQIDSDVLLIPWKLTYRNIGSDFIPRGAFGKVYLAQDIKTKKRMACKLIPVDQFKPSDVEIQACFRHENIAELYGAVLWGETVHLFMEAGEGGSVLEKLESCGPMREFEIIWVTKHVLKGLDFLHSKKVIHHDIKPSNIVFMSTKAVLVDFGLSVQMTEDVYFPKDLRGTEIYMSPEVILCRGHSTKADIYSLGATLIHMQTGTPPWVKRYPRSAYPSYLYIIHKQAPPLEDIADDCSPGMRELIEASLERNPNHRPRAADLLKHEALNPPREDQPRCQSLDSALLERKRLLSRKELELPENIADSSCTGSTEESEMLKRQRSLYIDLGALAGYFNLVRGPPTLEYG

[12] = molecular target: Mitogen-activated protein kinase kinase kinase kinase 4 (Homo sapiens) (UniProt O95819); assay: Inhibition of MAP4K4 (unknown origin) at 5.5 uM by Caliper Mobility Shift Assay
Mitogen-activated protein kinase kinase kinase kinase 4 (Homo sapiens), sequence (O95819 2-1239 limits assumed): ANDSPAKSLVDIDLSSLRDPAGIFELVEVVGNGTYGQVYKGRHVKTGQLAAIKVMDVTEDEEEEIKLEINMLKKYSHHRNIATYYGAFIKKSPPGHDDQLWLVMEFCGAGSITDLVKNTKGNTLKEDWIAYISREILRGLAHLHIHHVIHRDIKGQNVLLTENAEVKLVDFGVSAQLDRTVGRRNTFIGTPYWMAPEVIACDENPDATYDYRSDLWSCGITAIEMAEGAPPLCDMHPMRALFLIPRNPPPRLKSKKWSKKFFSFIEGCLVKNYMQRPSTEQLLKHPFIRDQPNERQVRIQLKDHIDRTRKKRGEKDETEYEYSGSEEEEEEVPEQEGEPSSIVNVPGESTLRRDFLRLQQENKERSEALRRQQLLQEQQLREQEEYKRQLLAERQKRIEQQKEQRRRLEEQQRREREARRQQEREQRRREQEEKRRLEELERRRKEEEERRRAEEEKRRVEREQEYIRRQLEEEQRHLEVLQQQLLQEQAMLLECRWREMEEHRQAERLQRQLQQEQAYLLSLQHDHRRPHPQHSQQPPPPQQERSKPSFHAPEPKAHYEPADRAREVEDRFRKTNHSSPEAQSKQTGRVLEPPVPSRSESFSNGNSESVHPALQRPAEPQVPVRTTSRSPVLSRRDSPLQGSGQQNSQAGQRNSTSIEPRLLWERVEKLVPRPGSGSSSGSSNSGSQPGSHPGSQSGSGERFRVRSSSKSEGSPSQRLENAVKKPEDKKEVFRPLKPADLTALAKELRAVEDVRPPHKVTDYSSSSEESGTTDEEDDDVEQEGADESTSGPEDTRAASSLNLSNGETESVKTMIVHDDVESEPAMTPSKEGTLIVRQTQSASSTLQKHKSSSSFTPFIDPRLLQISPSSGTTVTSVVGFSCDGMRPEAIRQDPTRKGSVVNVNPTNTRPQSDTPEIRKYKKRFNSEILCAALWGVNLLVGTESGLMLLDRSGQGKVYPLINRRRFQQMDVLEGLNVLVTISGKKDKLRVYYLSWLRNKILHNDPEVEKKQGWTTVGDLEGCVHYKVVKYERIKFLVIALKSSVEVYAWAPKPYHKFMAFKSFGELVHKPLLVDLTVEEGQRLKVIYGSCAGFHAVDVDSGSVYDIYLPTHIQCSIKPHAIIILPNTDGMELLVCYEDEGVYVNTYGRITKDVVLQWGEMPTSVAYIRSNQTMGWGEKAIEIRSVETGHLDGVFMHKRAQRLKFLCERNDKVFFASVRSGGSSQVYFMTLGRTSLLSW

[13] = molecular target: T3, MAP kinase-activated protein kinase 5 (Homo sapiens) (UniProt Q8IW41); assay: Inhibition of MAPKAPK5 (MK5) (unknown origin) at 5.5 uM by Caliper Mobility Shift Assay
T3 sequence (whole entry): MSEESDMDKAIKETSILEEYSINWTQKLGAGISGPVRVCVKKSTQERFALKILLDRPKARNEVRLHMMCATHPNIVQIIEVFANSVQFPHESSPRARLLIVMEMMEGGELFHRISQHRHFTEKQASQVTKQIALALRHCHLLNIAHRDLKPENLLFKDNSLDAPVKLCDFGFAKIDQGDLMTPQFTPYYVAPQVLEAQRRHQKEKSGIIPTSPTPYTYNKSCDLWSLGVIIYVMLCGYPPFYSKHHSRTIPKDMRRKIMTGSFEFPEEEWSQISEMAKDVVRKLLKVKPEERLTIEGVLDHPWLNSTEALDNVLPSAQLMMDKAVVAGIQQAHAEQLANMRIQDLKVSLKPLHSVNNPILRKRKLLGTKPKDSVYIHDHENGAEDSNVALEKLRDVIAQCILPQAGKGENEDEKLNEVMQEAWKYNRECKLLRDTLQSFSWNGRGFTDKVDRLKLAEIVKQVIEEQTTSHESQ

[14] = molecular target: Mitogen-activated protein kinase 14 (Homo sapiens, UniProt Q16539); assay: Inhibition of p38a (unknown origin) at 5.5 uM by Caliper Mobility Shift Assay
Mitogen-activated protein kinase 14, sequence (Q16539 whole entry): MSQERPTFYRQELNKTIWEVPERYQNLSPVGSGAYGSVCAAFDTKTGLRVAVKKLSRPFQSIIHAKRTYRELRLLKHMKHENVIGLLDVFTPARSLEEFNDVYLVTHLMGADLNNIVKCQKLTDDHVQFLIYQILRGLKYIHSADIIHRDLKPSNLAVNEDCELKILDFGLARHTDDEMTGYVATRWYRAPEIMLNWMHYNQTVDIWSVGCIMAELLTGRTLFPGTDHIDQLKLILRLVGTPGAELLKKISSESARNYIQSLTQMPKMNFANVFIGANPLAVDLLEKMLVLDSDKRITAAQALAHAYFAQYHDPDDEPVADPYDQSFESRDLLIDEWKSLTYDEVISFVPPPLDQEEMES

Homo sapiens [15] = organism: Homo sapiens; assay: Inhibition of PRKACA(PKA) (unknown origin) at 5.5 uM by Caliper Mobility Shift Assay
[16] = molecular target: T4, Serine/threonine-protein kinase 4 (Homo sapiens) (UniProt Q13043); assay: Inhibition of STK4 (unknown origin) at 5.5 uM by Caliper Mobility Shift Assay
T4 sequence (whole entry): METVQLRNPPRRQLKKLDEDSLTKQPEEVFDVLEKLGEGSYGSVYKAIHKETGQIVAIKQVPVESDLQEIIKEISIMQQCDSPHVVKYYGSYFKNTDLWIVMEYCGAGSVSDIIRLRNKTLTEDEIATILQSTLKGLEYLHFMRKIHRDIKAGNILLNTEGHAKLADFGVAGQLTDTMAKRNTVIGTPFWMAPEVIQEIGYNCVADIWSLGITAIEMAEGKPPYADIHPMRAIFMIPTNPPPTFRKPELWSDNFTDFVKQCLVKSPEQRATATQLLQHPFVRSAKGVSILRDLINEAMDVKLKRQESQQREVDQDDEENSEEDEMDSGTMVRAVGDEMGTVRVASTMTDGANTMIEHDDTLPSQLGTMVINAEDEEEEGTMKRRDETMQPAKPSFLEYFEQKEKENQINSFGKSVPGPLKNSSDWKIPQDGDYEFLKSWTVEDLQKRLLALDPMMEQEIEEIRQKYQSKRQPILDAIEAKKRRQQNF

Measured: inhibition

CC(=O)Nc1cc(-c2c(-c3ccc(F)cc3)nc(S/C=C\C(=O)O)n2C2CCCCC2)ccn1
< 50%: all assays above

CC(=O)Nc1cc(-c2c(-c3ccc(F)cc3)nc(Sc3cccc(I)n3)n2C2CCCCC2)ccn1
< 50%: all assays above

CC(=O)Nc1cc(-c2c(-c3ccc(F)cc3)nc(S/C=C\C(=O)O)n2CC2CCCO2)ccn1 (racemic)
< 50%: all assays above

CC(=O)Nc1cc(-c2c(-c3ccc(F)cc3)nc(S/C=C\C(=O)O)n2C2CC2)ccn1
< 50%: all assays above

COC(Cn1c(SC2CCC(C(=O)O)CC2O)nc(-c2ccc(F)cc2)c1-c1ccnc(NC(C)=O)c1)OC (stereo not given)
< 50%: all assays above
